Results from the supplement of paper PMC13380429.

How the values were obtained:
Conditions in all cases: 72 h
[1] = tested on: Caco-2; test: drug sensitivity score (DSS) for viability; higher = more toxic; extreme values may be limits of the assay
[2] = tested on: HepG2; test: as above
[3] = tested on: Calu-3; test: as above
[4] = tested on: Vero E6; test: as above
[5] = tested on: U2OS; test: as above
[6] = tested on: Caco-2; test: relative viability EC50 (midpoint between 100% and the lowest measured viability); higher = less toxic
[7] = tested on: HepG2; test: as above
[8] = tested on: Calu-3; test: as above
[9] = tested on: Vero E6; test: as above
[10] = tested on: U2OS; test: as above
[11] = tested on: Caco-2; test: cell viability relative to DMSO; higher = less toxic
[12] = tested on: HepG2; test: as above
[13] = tested on: Calu-3; test: as above
[14] = tested on: Vero E6; test: as above
[15] = tested on: U2OS; test: as above

Compound | drug sensitivity score [1] | drug sensitivity score [2] | drug sensitivity score [3] | drug sensitivity score [4] | drug sensitivity score [5] | relative viability EC50 [6] | relative viability EC50 [7] | relative viability EC50 [8] | relative viability EC50 [9] | relative viability EC50 [10] | cell viability ([11]; 1 nM) | cell viability ([11]; 10 nM) | cell viability ([11]; 100 nM) | cell viability ([11]; 1000 nM) | cell viability ([11]; 10000 nM) | cell viability ([12]; 1 nM) | cell viability ([12]; 10 nM) | cell viability ([12]; 100 nM) | cell viability ([12]; 1000 nM) | cell viability ([12]; 10000 nM) | cell viability ([13]; 1 nM) | cell viability ([13]; 10 nM) | cell viability ([13]; 100 nM) | cell viability ([13]; 1000 nM) | cell viability ([13]; 10000 nM) | cell viability ([14]; 1 nM) | cell viability ([14]; 10 nM) | cell viability ([14]; 100 nM) | cell viability ([14]; 1000 nM) | cell viability ([14]; 10000 nM) | cell viability ([15]; 1 nM) | cell viability ([15]; 10 nM) | cell viability ([15]; 100 nM) | cell viability ([15]; 1000 nM) | cell viability ([15]; 10000 nM)
CCCCOC(=O)c1cc2c(cn1)[nH]c1ccccc12 [beta-CCB] | 0.1 | 0 | 0 | 0 | 0 | > 10 µM | > 10 µM | > 10 µM | > 10 µM | > 10 µM | 95.1% | 95.5% | 106% | 94.9% | 88.9% | 117% | 118% | 105% | 98.4% | 96% | 92.2% | 93% | 107% | 106% | 91.5% | 99.5% | 97.3% | 101% | 98.7% | 102% | 102% | 111% | 99.3% | 105% | 96%
C[N@+]1(CC2CC2)CC[C@]23c4c5ccc(O)c4O[C@H]2C(=O)CC[C@@]3(O)[C@H]1C5 [methylnaltrexone] | 0 | 0 | 0 | 0 | 0 | > 10 µM | > 10 µM | > 10 µM | > 10 µM | > 10 µM | 101% | 95.6% | 99.8% | 94.2% | 90.8% | 93.2% | 97.7% | 91.9% | 96.8% | 92.3% | 104% | 95% | 107% | 97.1% | 103% | 97.3% | 105% | 96.9% | 97.2% | 94.5% | 104% | 95.2% | 98.4% | 97.5% | 99.6%
CC(=O)c1ccc2c(c1)N(CCCN1CCN(CCO)CC1)c1ccccc1S2 [acetophenazine] | 0 | 0 | 0 | 0.5 | 0 | > 10 µM | > 10 µM | > 10 µM | > 10 µM | > 10 µM | 88.8% | 103% | 95.4% | 97.2% | 97.7% | 107% | 98.9% | 91.1% | 90.9% | 90.4% | 107% | 110% | 95.3% | 108% | 88.7% | 104% | 98.2% | 106% | 99% | 82.6% | 93.6% | 100% | 96.1% | 98.2% | 91.3%
O=C(NCc1ccccc1)OCCO [buramate] | 0 | 1 | 0 | 0 | 0 | > 10 µM | > 10 µM | > 10 µM | > 10 µM | > 10 µM | 96.1% | 105% | 89.9% | 102% | 88.1% | 106% | 97.8% | 104% | 86.8% | 85.8% | 99.7% | 97.3% | 95.8% | 94.9% | 91.5% | 100% | 102% | 111% | 92% | 101% | 99.5% | 100% | 99.7% | 100% | 100%
C=CC1=C(C(=O)O)N2C(=O)[C@@H](NC(=O)/C(=N\O)c3csc(N)n3)[C@H]2SC1 [cefdinir] | 0 | 0 | 0 | 0 | 0 | > 10 µM | > 10 µM | > 10 µM | > 10 µM | > 10 µM | 100% | 98.9% | 90.3% | 101% | 99.2% | 110% | 92.9% | 101% | 93.1% | 97.5% | 101% | 91.8% | 92.3% | 102% | 101% | 104% | 100% | 99.8% | 97.7% | 99.9% | 94% | 104% | 94.8% | 102% | 100%
CCN1CCN(c2cc(-c3ccc(F)cc3)c3c(n2)CCCCCC3)CC1 [blonanserin] | 0 | 0 | 0 | 0 | 0 | > 10 µM | > 10 µM | > 10 µM | > 10 µM | > 10 µM | 94% | 108% | 98.3% | 102% | 95.5% | 95.1% | 88% | 92.3% | 92.9% | 92.9% | 89.4% | 93.4% | 94.5% | 111% | 92.7% | 98.2% | 101% | 95% | 93.2% | 102% | 100% | 97.3% | 96.4% | 103% | 92.9%
C[N+](C)(C)CCCCCNCC12CC3CC(CC(C3)C1)C2 [IEM1460] | 0.1 | 0 | 0 | 0 | 0 | > 10 µM | > 10 µM | > 10 µM | > 10 µM | > 10 µM | 96.2% | 103% | 95% | 99.6% | 88.1% | 101% | 85.2% | 104% | 93.9% | 106% | 91.1% | 104% | 96.1% | 98.2% | 98.4% | 105% | 91% | 105% | 92.5% | 103% | 94.1% | 102% | 99% | 103% | 95.7%
